Laboratory results from US20150342954A1, “2-BENZYL, 3-(PYRIMIDIN-2-YL) SUBSTITUTED PYRAZOLES USEFUL AS SGC STIMULATORS” (IRONWOOD PHARMACEUTICALS, INC., priority 2011, published 2015).
Where two headings read alike, the source gives them in different places.

Legend:
[1] = biological target: T1, soluble guanylate cyclase (sGC) (Homo sapiens, UniProt Q02108+Q02153); experiment: sGC-HEK-cGMP assay (run with SNP incubation); type: cell-based; conditions: for Emax: 10 μM SNP, 100% = 30 μM BAY 41-2272 with 10 μM SNP, read-out: HEK assay Emax-unconstrained (Percent); for HEK MEC-10: concentration that would elicit 10% of the Emax in the presence of 10 μM SNP; for EC50: in the presence of 10 μM SNP
T1 construct: endogenously expressing soluble guanylate cyclase (sGC); endogenous in cells; host or cells: HEK293
T1 sequence (Q02153 1-619): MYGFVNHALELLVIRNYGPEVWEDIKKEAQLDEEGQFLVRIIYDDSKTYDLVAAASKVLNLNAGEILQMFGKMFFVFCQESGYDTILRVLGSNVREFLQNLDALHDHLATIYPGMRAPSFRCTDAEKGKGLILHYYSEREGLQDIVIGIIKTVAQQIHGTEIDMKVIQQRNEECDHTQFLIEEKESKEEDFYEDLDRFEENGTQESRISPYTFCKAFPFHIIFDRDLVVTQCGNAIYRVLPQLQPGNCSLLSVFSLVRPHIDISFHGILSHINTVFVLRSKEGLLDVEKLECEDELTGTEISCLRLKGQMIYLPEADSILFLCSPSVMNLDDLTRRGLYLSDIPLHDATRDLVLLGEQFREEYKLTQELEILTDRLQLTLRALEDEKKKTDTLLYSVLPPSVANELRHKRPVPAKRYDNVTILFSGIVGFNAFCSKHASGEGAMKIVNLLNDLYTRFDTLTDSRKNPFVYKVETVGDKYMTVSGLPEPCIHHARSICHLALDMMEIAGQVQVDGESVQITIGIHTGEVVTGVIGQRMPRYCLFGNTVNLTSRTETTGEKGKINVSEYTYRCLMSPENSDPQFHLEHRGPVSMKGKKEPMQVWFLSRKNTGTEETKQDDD
T1 sequence (Q02108 1-690): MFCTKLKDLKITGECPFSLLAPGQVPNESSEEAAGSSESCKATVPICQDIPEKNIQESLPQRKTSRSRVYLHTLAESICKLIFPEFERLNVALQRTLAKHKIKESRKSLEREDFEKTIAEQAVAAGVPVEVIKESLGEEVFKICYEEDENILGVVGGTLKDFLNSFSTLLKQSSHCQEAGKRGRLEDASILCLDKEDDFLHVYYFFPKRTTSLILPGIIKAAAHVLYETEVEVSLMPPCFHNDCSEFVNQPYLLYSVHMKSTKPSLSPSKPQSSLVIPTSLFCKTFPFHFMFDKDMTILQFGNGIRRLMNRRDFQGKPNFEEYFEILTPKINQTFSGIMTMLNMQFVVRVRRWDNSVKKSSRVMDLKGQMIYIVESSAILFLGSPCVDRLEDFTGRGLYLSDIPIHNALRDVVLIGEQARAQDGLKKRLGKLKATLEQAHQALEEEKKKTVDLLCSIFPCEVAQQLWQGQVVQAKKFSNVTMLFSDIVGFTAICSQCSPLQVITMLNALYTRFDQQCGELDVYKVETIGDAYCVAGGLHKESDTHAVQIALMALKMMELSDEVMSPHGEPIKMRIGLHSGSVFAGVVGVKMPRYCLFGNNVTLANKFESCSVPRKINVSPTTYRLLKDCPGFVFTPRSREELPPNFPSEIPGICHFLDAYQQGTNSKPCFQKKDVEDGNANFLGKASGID
Outline: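 HEK293 cells with endogenous sGC were pre-treated 15 min at 37 °C with 0.5 mM IBMX, then exposed to test compound plus sodium nitroprusside for 10 min at 37 °C. Cells were lysed in 0.1 M HCl (4 °C, 30 min), and cGMP was quantified by LC/MS against a standard curve. EC50 values came from concentration-response curves.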

Thoracic aortic rings = experiment: Alternative thoracic aortic rings assay (Example 5; original resting tension as 100% inhibition); conditions: rat thoracic aortic rings contracted with phenylephrine; for Aortic Ring Percent Relaxation at 1 μM: compound at 1 μM; for Aortic Ring Percent Relaxation at 3 μM: compound at 3 μM; for Aortic Ring Percent Relaxation at 10 μM: compound at 10 μM; for EC50: read-out: Aortic Ring EC50
Protocol: Thoracic aortic rings were dissected from anesthetized (isoflurane) male Sprague-Dawley rats weighing 275-299 g. Tissues were immediately transferred to ice-cold Krebs-Henseleit solution, which had been aerated with 95% 02 and 5% CO2 for 30 minutes. Following removal of connective tissue, aortic sections were cut into 4 rings (˜2 mm each) and suspended on 2 L-shaped hooks, with one hook fixed at the bottom of the tissue bath (Schuler Organ Bath, Harvard Apparatus) and the other connected to a force transducer (F30 Force Transducer, Harvard Apparatus). Baths contained Krebs Henseleit solution (10 mL) heated to 37° C. and aerated with 95% 02 and 5% CO2. Rings were brought to an initial tension of 0.3-0.5 g and gradually raised to a resting tension of 1.0 g over 60 minutes. Rings were rinsed with Krebs Henseleit solution (heated to 37° C. and aerated with 95% 02 and 5% CO2) at 15 minute intervals until a stable baseline was obtained. Rings were considered to be stable after a resting tension of 1.0 g was maintained (for approximately 10 minutes) without need for adjustment. Rings were then contracted with 100 ng/mL phenylephrine by adding 100 μL of a 10 μg/mL phenylephrine stock solution. Tissues achieving a stable contraction were then treated in a cumulative, dose dependent manner with test compounds prepared in dimethylsulfoxide (DMSO). In some cases, tissues were rinsed three times over a 5 minute period with Krebs-Heinseleit's solution (heated to 37° C. and aerated with 95% 02 and 5% CO2), allowed to stabilize at baseline, and then used for characterization of other test articles or DMSO effects. All data were collected using the HSE-ACAD software provided by Harvard Apparatus. […] EC50 values were calculated from concentration-response curves generated with GraphPad Prism Software.
Biological Activity Measurement by the Thoracic Aortic Rings Assay
The biological data for some of a compound of Table I, in comparison with the known compound, BAY 41-2272, as the reference compound, determined by the thoracic aorta ring assay of Example 5 are presented in Table 6 below.

[2] = biological target: T2, Human soluble guanylate cyclase enzyme (hsGC) (Homo sapiens, UniProt Q02108+Q02153); experiment: Purified human sGC enzyme activity assay (without SNP); type: biochemical; conditions: compound at 30 μM, absence of SNP, fold over DMSO control
T2 construct: purchased Enzo Inc. ALX-201-177
T2 sequence (Q02153 1-619): T1 sequence (Q02153 1-619)
T2 sequence (Q02108 1-690): T1 sequence (Q02108 1-690)
Outline: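 Purified human sGC (5 ng) in 0.1 M Tris pH 8.0, 2 mM DTT, 2 mM MgCl2, 300 μM GTP, 1 mM IBMX, with compound at 10 or 30 μM final, 30 min at 37° C.; methanol-stopped. cGMP quantified against a standard curve; specific activity expressed as fold-change over DMSO control.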

[3] = biological target: T2, Human soluble guanylate cyclase enzyme (hsGC); experiment: Purified human sGC enzyme synergy assay in the presence of 1 μM sodium nitroprusside (SNP); type: biochemical; conditions: compound at 30 μM, presence of 1 μM SNP
Outline: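 Purified hsGC (5 ng) incubated 30 min at 37 °C with compound (10 or 30 μM final) in Tris pH 8.0, 300 μM GTP, 1 mM IBMX, 2 mM MgCl2, with or without 1 μM SNP; stopped with cold methanol. cGMP quantified against standard curve; specific activity expressed as fold-change over DMSO control.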

[4] = Table 3A, top of concentration-response curve not fitted to 100%
[5] = Table 3D, read-out: HEK assay EC50
[6] = top of concentration-response curve not fitted to 100%, Table 3D, read-out: HEK assay EC50-unconstrained
[7] = Table 3C, top of concentration-response curve not fitted to 100%
[8] = Table 3F, read-out: HEK assay EC50
[9] = top of concentration-response curve not fitted to 100%, Table 3F, read-out: HEK assay EC50-unconstrained
[10] = Table 3B, top of concentration-response curve not fitted to 100%
[11] = Table 3E, read-out: HEK assay EC50
[12] = top of concentration-response curve not fitted to 100%, Table 3E, read-out: HEK assay EC50-unconstrained

SMILES	Emax [1, 4] [%]	HEK MEC-10 ([1]; Table 3D)	Emax [1, 10] [%]	HEK MEC-10 ([1]; Table 3E)	EC50 [1, 11] [µM]	EC50 [1, 12] [µM]	Enzyme Activity (increase at 30 μM without SNP) ([2]; Table 5B)	Enzyme Activity (increase at 30 μM with SNP) ([3]; Table 5B)	also measured
N#CC1(C(=O)Nc2cnc(-c3cc(-c4ncco4)n(Cc4ccccc4F)n3)nc2N)CC1 [Compound 47, N-(4-amino-2-(1-(2-fluorobenzyl)-5-(oxazol-2-yl)-1H-pyrazol-3-yl)pyrimidin-5-yl)-1-cyanocyclopropanecarboxamide]	100 to 120	B (0.01 to <0.1 μM)							EC50 [1, 5]: < 20 µM; EC50 [1, 6]: 0.01 to 0.5 µM; Aortic Ring Percent Relaxation at 1 μM (Thoracic aortic rings): E (60 or <80%); Aortic Ring Percent Relaxation at 3 μM (Thoracic aortic rings): F (80 to <100%); Aortic Ring Percent Relaxation at 10 μM (Thoracic aortic rings): G (100 to <120%); EC50 (Thoracic aortic rings): < 2000 nM
Oc1nc(-c2cc(-c3ccon3)n(Cc3cccc(F)c3F)n2)ncc1F [Compound 1]	60 to 80	B (0.01 to <0.1 μM)							EC50 [1, 5]: < 20 µM; EC50 [1, 6]: 0.01 to 0.5 µM; Aortic Ring Percent Relaxation at 1 μM (Thoracic aortic rings): F (80 to <100%); Aortic Ring Percent Relaxation at 3 μM (Thoracic aortic rings): G (100 to <120%); Aortic Ring Percent Relaxation at 10 μM (Thoracic aortic rings): G (100 to <120%); EC50 (Thoracic aortic rings): < 2000 nM
Fc1ccccc1Cn1nc(-c2ncc3[nH]cnc3n2)cc1-c1ccon1 [Compound 110]									Emax [1, 7]: 80 to 100%; HEK MEC-10 ([1]; Table 3F): C (0.1 to <1 μM); EC50 [1, 8]: < 20 µM; EC50 [1, 9]: 1 to 5 µM; Enzyme Activity (increase at 30 μM without SNP) ([2]; Table 5C): D (10 or <20 fold increase); Enzyme Activity (increase at 30 μM with SNP) ([3]; Table 5C): D (10 or <20 fold increase)
CC1(C)C(=O)Nc2nc(-c3cc(-c4ccon4)n(Cc4ccccc4F)n3)ncc21 [Compound 100]									Emax [1, 7]: 60 to 80%; HEK MEC-10 ([1]; Table 3F): C (0.1 to <1 μM); EC50 [1, 8]: < 20 µM; EC50 [1, 9]: 0.5 to 1 µM; Enzyme Activity (increase at 30 μM without SNP) ([2]; Table 5C): D (10 or <20 fold increase); Enzyme Activity (increase at 30 μM with SNP) ([3]; Table 5C): F (>30 fold increase)
COc1nc(-c2cc(-c3ccon3)n(Cc3ccccc3F)n2)ncc1F [Compound 28]	60 to 80	B (0.01 to <0.1 μM)							Enzyme Activity (increase at 30 μM without SNP) ([2]; Table 5A): C (5 to <10 fold increase); Enzyme Activity (increase at 30 μM with SNP) ([3]; Table 5A): D (10 or <20 fold increase)
O=c1[nH]c(-c2cc(-c3ccccn3)n(Cc3ccccc3F)n2)ncc1F [Compound 68]			40 to 60	D (1 to <10 μM)	40 to 60	5 to 10	A (no increase to <2 fold increase)	C (5 to <10 fold increase)	
Oc1nc(-c2cc(-c3nccs3)n(Cc3ccccc3F)n2)ncc1F [Compound 44]	40 to 60	C (0.1 to <1 μM)							EC50 [1, 5]: < 20 µM; EC50 [1, 6]: 0.01 to 0.5 µM; Enzyme Activity (increase at 30 μM without SNP) ([2]; Table 5A): B (2 to <5 fold increase); Enzyme Activity (increase at 30 μM with SNP) ([3]; Table 5A): D (10 or <20 fold increase)

Now from value to compound, other results behind:

Emax [1, 4] [%]	HEK MEC-10 ([1]; Table 3D)	Emax [1, 10] [%]	HEK MEC-10 ([1]; Table 3E)	EC50 [1, 11] [µM]	EC50 [1, 12] [µM]	Enzyme Activity (increase at 30 μM without SNP) ([2]; Table 5B)	Enzyme Activity (increase at 30 μM with SNP) ([3]; Table 5B)	SMILES	also measured
		40 to 60	C (0.1 to <1 μM)	40 to 60	0.01 to 0.5	D (10 or <20 fold increase)	E (20 to 30 fold increase)	CC(=O)Nc1cnc(-c2cc(-c3ccon3)n(Cc3cccc(F)c3F)n2)nc1N [Compound 80]	
		40 to 60			0.01 to 0.5	C (5 to <10 fold increase)	E (20 to 30 fold increase)	O=c1[nH]c(-c2cc(-c3ccon3)n(Cc3ccccc3F)n2)nc(F)c1C(F)(F)F [Compound 85, 6-fluoro-2-(1-(2-fluorobenzyl)-5-(isoxazol-3-yl)-1H-pyrazol-3-yl)-5-(trifluoromethyl)pyrimidin-4(3H)-one]	
		40 to 60	B (0.01 to <0.1 μM)	40 to 60	0.01 to 0.5	D (10 or <20 fold increase)	D (10 or <20 fold increase)	O=c1[nH]c(-c2cc(-c3ccon3)n(Cc3cc(F)ccc3F)n2)ncc1F [Compound 72]	
		40 to 60	D (1 to <10 μM)	40 to 60	5 to 10	B (2 to <5 fold increase)	D (10 or <20 fold increase)	O=c1[nH]c(-c2cc(-c3ccon3)n(Cc3ccccc3F)n2)nc(CF)c1F [Compound 79]	
